Results reported in US20260209260A1, “VECTORIZED NHC IRIDIUM(III) COMPLEXES AND USE THEREOF IN PHOTODYNAMIC THERAPY AND/OR DIAGNOSTIC” (CENTRE NATIONAL DE LA RECHERCHE SCIENTIFIQUE, priority 2022, published 2026).
Read-outs that look alike come from different tables or passages of the source.

What was measured:
[1] = Lipophilicity: octanol-water partition coefficient, shake-flask method
Description: The octanol-water partition coefficients (P) of all the complexes were determined using a shake-flask method^8. Water (100 mL, distilled after milli-Q purification) and n-octanol (100 mL, Sigma Aldrich, ACS spectrophotometric grade, ≥99%) were shaken together for 24 h to allow saturation of both phases. Stock solutions of the compounds ([…]) were prepared in the aqueous phase. Aliquots (2 mL) of each of these stock solutions were then added to an equal volume of the n-octanol phase. The resultant biphasic solution was mixed for 15 min and then centrifuged (3000 tr/min, 5 min) to separate the phases. The concentrations of the complex in the organic and aqueous phases were then determined using UV absorbance spectroscopy (260 nm). The blank is the water saturated with n-octanol. Log P was defined as logarithm of the ratio of the concentrations of the complex in the organic and aqueous phases (values reported are the means of at least three separated determinations).
The Log P values have been determined by a classical shake-flask method.

[2] = Luminescence emission spectra and quantum yield; format: physicochemical; conditions: room temperature; reference POPOP in hexane or rhodamine B in ethanol
Description: Fluorescence and phosphorescence emission spectra were obtained with a HORIBA JOBIN YVON, fluromax-4 and spectrofluorometer.
Luminescence quantum yields were measured according to the method of Demas and Crosby, on solution samples at RT. The quantum yield is defined as: […]
Where ΦP is the quantum yield of the sample, ΦR is the know quantum yield of the reference standard. […].
The luminescence spectra of vectorized iridium(III) complexes were determined in CH2Cl2 at room temperature (Table 3).

[3] = Emission lifetime measurement; format: physicochemical
Description: Fluorescence lifetime measurements were performed by an Edinburgh FLS920 spectrofluorimeter equipped with a TCC900 card for data acquisition in time-correlated single-photon counting experiments (0.5 ns time resolution) with a D2 lamp and an LDH—P-C-405 pulsed diode laser. The estimated experimental error is 2 nm on the band maximum (5% on the lifetime, 10% on the fluorescence quantum yield).
The emission lifetimes of biotin-vectorized complexes (I-a) to (I-l) range from 138 ns to 411 ns, among them, the lifetime of biotin-vectorized complexes (I-c), (I-e), (I-k) are 411, 224, and 322 ns respectively. The emission lifetimes of FTS-vectorized complexes (II-a) to (II-l) range from 167 ns to 486 ns, among them, the lifetime of FTS-vectorized complexes (II-c) and (II-k) are 319 and 486 ns respectively. The emission lifetimes of PSMA-vectorized complexes (III-a) to (III-l) are in the range of 159-649 ns, among them, the lifetime of complexes (III-a) and (III-k) were 248 and 649 ns, respectively. The emission lifetimes of Fc-vectorized complexes (IV-a) to (IV-l) are in the range of 178-228 ns.

[4] = UV/Vis absorption spectra; format: physicochemical; conditions: room temperature; for maximum absorption, lowest-lying bands in the visible region over 360 nm: CH2Cl2 or CH2Cl2/MeOH (1:1); for λmax (nm) ε (M^−1 · cm^−1): air-saturated CH2Cl2 or CH2Cl2/MeOH (1:1), 50 μM, ε in brackets, sh = shoulder
Description: UV/Vis absorption spectra were recorded at RT on solutions contained in quartz cuvettes (optical pathlength 1 cm, Hellma®) with a PerkinElmer® UV/VIS/NIR spectrophotometer Lambda 950 and a PerkinElmer® detector UV/VIS/NIR Accessory 2D Detector Module.

[5] = test system: PC-3 prostate cancer cells (PSMA-negative); assay: Cell viability assay (MTT), dark and blue light; format: cell-based, Human; conditions: for GI50: read-out: GI50; for Photosensitizing index (PI): PC3, dark vs blue light
Description: (§1) Cells were grown in humidified incubators at 37° C. in 5% CO2. Murine MC3T3 osteoblast and NIH-3T3 fibroblast cells-used as non-tumor cell models-were cultured in a-MEM medium and DMEM medium supplemented with 10% fetal bovine serum (FBS) and 1% Penicillin/Streptomycin (P/S) antibiotics, respectively. Human T24 bladder, MGHU3 bladder, Scaber bladder, A549 lung, MCF7 breast, MiaPaCa2 pancreas cancer cells were cultured in DMEM medium supplemented with 10% FBS and 1% P/S antibiotics. Human ASPC-1 pancreas, PC-3 prostate, DU-145 prostate, C4-2B prostate and 22rV1 prostate cancer cells were cultured in RPMI medium supplemented with 10% FBS and 1% P/S antibiotics. Human Hela cervix and HepG2 liver cancer cells were cultured EMEM medium supplemented with 10% FBS and 1% P/S antibiotics.
(§2) MTT reagent (3-(4,5-dimethylthiazol-2-yl)-2,5-diphenyltetrazolium bromide) was used to determine cell death as originally described by Mosmann. Briefly, cells were seeded from 5,000 to 10,000 cells/well in 24-well plates (1 mL) depending on the cell type and allowed to attach overnight. The complexes were prepared in DMSO. The concentration of the complexes was calculated based on the elemental composition of the complexes determined by the elemental analyses. All cell viability experiments were carried out with a fixed concentration of 0.1% (v/v) DMSO. After 72 h of treatment, cells were incubated at 37° C. and 5% CO2 with 25 μL of MTT solution (5 mg/ml; Sigma-Aldrich) in 24-well plates for 3 to 4 h. After solubilization with 500 μL of DMSO, formazan was quantified spectrophotometrically with a microplate reader at 570 nm absorbance (ClarioSTAR, BMG LabTech). […] All the results were calculated from data obtained in at least three independent experiments performed in triplicate.
Irradiation was conducted using an in-house device, a series of blue light LEDs selected according to the absorption spectra of the compounds at 458 nm wavelength with an emitted power of 9.6 Watts. The light fluence was measured at 458 nm with an optical power meter Thorlabs PM100A at different distances between the cell layer and the light source (5 and 10 cm).
(§3) Two sets of experiments were conducted in parallel for each complex to be studied:
(§4) 1. The cells were incubated with the different complexes (in the dark) for 72 h.
(§5) 2. The cells were incubated for 8 h with the different complexes (in the dark), then irradiated for 10 min, followed by an incubation in the dark up to 72 h.

[6] = test system: NIH-3T3 fibroblast cells (non-tumor); assay: Cell viability assay (MTT), dark and blue light; format: cell-based, Murine; conditions: for GI50: read-out: GI50; for Photosensitizing index (PI): NIH-3T3, dark vs blue light
Description: as §1, with “Human ASPC-1 pancreas, PC-3 prostate, DU-145 prostate, C4-2B prostate and 22rV1 prostate cancer cells were cultured in RPMI medium supplemented with 10% FBS and 1% P/S antibiotics.” left out
as §2, §3, §4, §5

[7] = n-octanol/water, shake-flask, mean of at least three determinations

| Compound | Log P [1, 7] | ΦP emission phosphorescence quantum yield [2] [%] | τ1 emission lifetime [3] [ns] | maximum absorption, lowest-lying bands in the visible region over 360 nm [4] | λmax (nm) ε (M^−1 · cm^−1) [4] | Log P [1] | SI (vs NIH-3T3) ([5]; PC3, blue light) | GI50 ([5]; PC3, blue light) [µM] | SI (vs NIH-3T3) ([5]; PC3, dark) | Photosensitizing index (PI) [5] | GI50 ([6]; NIH-3T3, blue light) [µM] | Photosensitizing index (PI) [6] | GI50 ([6]; NIH-3T3, dark) [µM] | GI50 ([5]; PC3, dark) [µM] | SI (vs NIH-3T3) PC-3 Blue ([5]; blue light 458 nm) |
| --- | --- | --- | --- | --- | --- | --- | --- | --- | --- | --- | --- | --- | --- | --- | --- |
| F[P-](F)(F)(F)(F)F.O=C(CCCC[C@@H]1SC[C@@H]2NC(=O)N[C@@H]21)NCCCn1cc[n+]2[c]1[Ir-3]13([c]4ccccc4-c4ccc(C(=O)O)c[n+]41)([c]1ccccc1-c1ccc(C(=O)O)c[n+]13)[n+]1ccccc1-2 [I-f] | −0.68 ± 0.07 | – | – | – | – | – | – | – | – | – | – | – | – | – | – |
| CC(C)=CCC/C(C)=C/CC/C(C)=C/CSc1ccccc1C(=O)NCCCn1cc[n+]2[c]1[Ir-3]13([c]4ccccc4-c4cccc[n+]41)([c]1ccccc1-c1cccc[n+]13)[n+]1ccccc1-2.F[P-](F)(F)(F)(F)F [II-a] | – | 0.5 | 210 | around 380 nm | 308 (sh) (14540), 380 (4505) nm (M^−1 · cm^−1) | 1.70 ± 0.08 | – | – | – | – | – | – | – | – | – |
| CC(C)=CCC/C(C)=C/CC/C(C)=C/CSc1ccccc1C(=O)NCCCn1cc[n+]2[c]1[Ir-3]13([c]4cc(C)ccc4-c4cccc[n+]41)([c]1cc(C)ccc1-c1cccc[n+]13)[n+]1ccccc1-2.F[P-](F)(F)(F)(F)F [II-b] | – | 0.4 | 167 | around 380 nm | 306 (sh) (15875), 382 (4560) nm (M^−1 · cm^−1) | 1.68 ± 0.02 | – | – | – | – | – | – | – | – | – |
| COC(=O)c1ccc2[c](c1)[Ir-3]13([c]4cc(C(=O)OC)ccc4-c4cccc[n+]41)([c]1n(CCCNC(=O)c4ccccc4SC/C=C(\C)CC/C=C(\C)CCC=C(C)C)cc[n+]1-c1cccc[n+]13)[n+]1ccccc1-2.F[P-](F)(F)(F)(F)F [II-c] | – | 4.6 | 319 | – | 310 (sh) (21710), 355 (5105), 398 (3925) nm (M^−1 · cm^−1) | 1.08 ± 0.01 | – | – | – | – | – | – | – | – | – |
| COC(=O)c1cccc2[c]1[Ir-3]13([c]4c(C(=O)OC)cccc4-c4cccc[n+]41)([c]1n(CCCNC(=O)c4ccccc4SC/C=C(\C)CC/C=C(\C)CCC=C(C)C)cc[n+]1-c1cccc[n+]13)[n+]1ccccc1-2.F[P-](F)(F)(F)(F)F [II-d] | – | 0.9 | 201 | around 370 nm | 372 (4535) nm (M^−1 · cm^−1) | 1.40 ± 0.02 | – | – | – | – | – | – | – | – | – |
| F[P-](F)(F)(F)(F)F.O=C(NCCCn1cc[n+]2[c]1[Ir-3]13([c]4ccccc4-c4cccc[n+]41)([c]1ccccc1-c1cccc[n+]13)[n+]1ccccc1-2)[c-]1cccc1.[Fe+2].c1cc[cH-]c1 [IV-a] | 0.61 ± 0.07 | 0.04 | 197 | around 380 nm | 304 (sh) (25840), 381 (8080) nm (M^−1 · cm^−1) | – | 2.8 | 2.4 | 9.9 | 1.2 | 6.7 | 4.2 | 28.2 | – | – |
| Cc1ccc2[c](c1)[Ir-3]13([c]4cc(C)ccc4-c4cccc[n+]41)([c]1n(CCCNC(=O)[c-]4cccc4)cc[n+]1-c1cccc[n+]13)[n+]1ccccc1-2.F[P-](F)(F)(F)(F)F.[Fe+2].c1cc[cH-]c1 [IV-b] | 1.63 ± 0.02 | 0.03 | 197 | around 380 nm | 308 (sh) (27820), 379 (8620) nm (M^−1 · cm^−1) | – | – | – | 16.4 | 2.2 | 13.2 | 1.1 | 13.9 | 0.85 | 33.8 |
| COC(=O)c1ccc2[c](c1)[Ir-3]13([c]4cc(C(=O)OC)ccc4-c4cccc[n+]41)([c]1n(CCCNC(=O)[c-]4cccc4)cc[n+]1-c1cccc[n+]13)[n+]1ccccc1-2.F[P-](F)(F)(F)(F)F.[Fe+2].c1cc[cH-]c1 [IV-c] | – | 0.04 | 195 | – | 304 (sh) (28570), 353 (sh) (7050), 399 (5315), 427 (sh) (3660) nm (M^−1 · cm^−1) | 0.72 ± 0.03 | 10.7 | – | 2.2 | 16.8 | 9.3 | 3.5 | – | – | – |
| COC(=O)c1cccc2[c]1[Ir-3]13([c]4c(C(=O)OC)cccc4-c4cccc[n+]41)([c]1n(CCCNC(=O)[c-]4cccc4)cc[n+]1-c1cccc[n+]13)[n+]1ccccc1-2.F[P-](F)(F)(F)(F)F.[Fe+2].c1cc[cH-]c1 [IV-d] | 0.77 ± 0.01 | 0.03 | 228 | around 370 nm | 335 (sh) (9725), 372 (6540) nm (M^−1 · cm^−1) | – | 12.0 | 1.3 | 1.3 | 17.0 | – | 1.9 | – | 21.6 | – |
| F[P-](F)(F)(F)(F)F.O=C(O)c1ccc2[n+](c1)[Ir-3]13([c]4ccccc4-2)([c]2ccccc2-c2ccc(C(=O)O)c[n+]21)[c]1n(CCCNC(=O)[c-]2cccc2)cc[n+]1-c1cccc[n+]13.[Fe+2].c1cc[cH-]c1 [IV-f] | 1.08 ± 0.03 | 0.12 | 202 | – | 304 (sh) (22560), 410 (4150) nm (M^−1 · cm^−1) | – | – | – | – | – | – | – | – | – | – |
